Laboratory results taken from patent US10273290B2, “Hydrocarbon double-stapled stabilized HIV-1 GP41 heptad repeat domain peptides” (DANA-FARBER CANCER INSTITUTE, INC., priority 2009, dated 2019).
Bridge positions count the residues as written; N and C are the ends. Square brackets hold non-standard residues; d marks the D form. Peptide text beside a SMILES is read from it. S5 = C=CCCC[C@](C)(N)C(=O)O; Nle = CCCC[C@H](N)C(=O)O

Assays:
[1] = tested on: resistant primary R5 isolate YU2; assay: Luciferase-based HIV-1 infectivity assay, YU2; format: cell-based; settings: compared to T649v
Excerpt: Also the direct inhibitory activity of modified polypeptides and the antibodies targeted thereto can be quantified based upon their capacity to directly block HIV infection of CD4-positive and CCR5-expressing canine thymus cells. Recombinant HIV-1 viruses (eg. HXBc2, YU2, and additional strains available through the NIH AIDS Research and Reference Reagent Program) expressing firefly luciferase and containing the indicated envelope glycoproteins can be used to infect Cf2Th-CD4-CCR5/CXCR4 cells in the presence of serially diluted modified HIV-1 gp41 polypeptides or antibodies targeted thereto After 48 hours, the cells are lysed and luciferase activity is quantified (Si, Z. H., M. Cayabyab, and J. Sodroski, Journal of Virology, 2001. 75(9): p. 4208-4218 Si, Z. H., et al., PNAS, 2004. 101(14): p. 5036-5041). The identical experiment is performed with the amphotropic murine leukemia virus (AMLV), to monitor for any nonspecific effects of the modified polypeptides or antibodies. […]
HIV-1 infectivity assays were performed using known methods (Madani et al., 2007 Inhibition of human immunodeficiency virus envelope glycoprotein-mediated single cell lysis by low-molecular-weight antagonists of viral entry. J Virol, 81: 532-538; and Si et al., 2001 Envelope glycoprotein determinants of neutralization resistance in a simian-human immunodeficiency virus (SHIV-HXBc2P 3.2) derived by passage in monkeys. J Virol, 75:4208-4218; both incorporated herein by reference). […] D-luciferin (50 μL of 1 mM stock in 100 μL luciferin buffer) is then added to each well and luciferase activity measured using a luminometer (EG&G Berthold).
To assess the functional impact of hydrocarbon stapling on gp41-based fusion inhibitor activity, SAH-gp41 peptides were tested and compared to their unmodified counterparts in a luciferase-based HIV-1 infectivity assay. Recombinant HIV-1 bearing the envelope glycoproteins from three distinct HIV-1 strains, HXBc2, ADA, and HXBc2P 3.2, and a negative control virus bearing the amphotropic murine leukemia virus (A-MLV) envelope glycoproteins, were evaluated. […]

[2] = in vivo; settings: mouse, plasma, iv
Excerpt: Plasma concentration, mean+standard error; ND, nondetectable.

CCCC[C@H](NC(C)=O)C(=O)N[C@H](C(=O)N[C@@H](Cc1c[nH]c2ccccc12)C(=O)N[C@@]1(C)CCCC=CCCC[C@@](C)(C(=O)N[C@@H](CCC(=O)O)C(=O)N[C@H](C(=O)N[C@@H](CC(N)=O)C(=O)N[C@@H](CC(N)=O)C(=O)N[C@@H](Cc2ccc(O)cc2)C(=O)N[C@H](C(=O)N[C@@H](CO)C(=O)N[C@@H](CC(C)C)C(=O)N[C@H](C(=O)N[C@@H](Cc2c[nH]cn2)C(=O)N[C@@H](CO)C(=O)N[C@@H](CC(C)C)C(=O)N[C@H](C(=O)N[C@@H](CCC(=O)O)C(=O)N[C@@H](CCC(=O)O)C(=O)N[C@@H](CO)C(=O)N[C@@H](CCC(N)=O)C(=O)N[C@@H](CC(N)=O)C(=O)N[C@@H](CCC(N)=O)C(=O)N[C@@]2(C)CCCC=CCCC[C@@](C)(C(=O)N[C@@H](CCC(N)=O)C(=O)N[C@@H](CCC(=O)O)C(=O)N[C@@H](CC(C)C)C(=O)N[C@@H](CC(C)C)C(=O)N[C@@H](CCC(=O)O)C(N)=O)NC(=O)[C@H](CC(N)=O)NC(=O)[C@H](CCCCN)NC(=O)[C@H](CCC(=O)O)NC2=O)[C@@H](C)CC)[C@@H](C)CC)[C@@H](C)O)[C@@H](C)CC)NC(=O)[C@H](CC(=O)O)NC(=O)[C@H](Cc2c[nH]c3ccccc23)NC(=O)[C@H](CCC(=O)O)NC1=O)[C@@H](C)O [SAH-gp41(626-662)(A, F)] (Ac-[Nle]TW[S5]EWD[S5]EINNYTSLIHSLIEESQNQ[S5]EKN[S5]QELLE-NH2; staple 4-8, 28-32; N-terminus and C-terminus assumed)
anti-YU2 activity, in words [1]: enhanced anti-YU2 activity
Cmax [2]: 140 µg/mL
